Measured values as given in PMC10821532, “Sex and Cross-Sex Testosterone Treatment Alters Gamma-Hydroxybutyrate Acid Toxicokinetics and Toxicodynamics in Rats” (Pharmaceutics, 2024).
Read-outs that look alike come from different tables or passages of the source.

Test: GHB toxicokinetic study, i.v. bolus, plasma and urine up to 8 h, noncompartmental analysis
Type: in vivo, Sprague Dawley rats
Settings: for clearance / CL renal: Sprague Dawley, rat, iv; for CL renal: read-out: CLR - Renal clearance
Procedure: Male and female Sprague Dawley (SD) rats, ovariectomized (OVX) females, and castrated (CST) males were obtained from Charles River (Wilmington, MA, USA) at 8 weeks of age. The animals were housed under controlled temperature and humidity with an artificial 12 h light/dark cycle, and food and water were available ad libitum. The animals were acclimatized for at least one week before experiments. Hormone treatment was conducted by implanting OVX female and CST male rats subcutaneously with 60-day release pellets containing 7.5 mg testosterone or corresponding placebo pellets (Innovative Research of America) at 10 weeks of age. After 21 days of hormone exposure, rats were utilized in toxicokinetic studies. Age-matched male and female rats were used as control groups. Female rats in the estrus stage were selected for the study. Estrus cycle stages of female rats were monitored daily by vaginal lavage smear, as described in previously published literature. The Institutional Animal Care and Use Committee (IACUC) at the University of the Pacific approved all experiments.
Jugular vein cannulas were surgically implanted under anesthesia with ketamine/xylazine. Cannulas were flushed daily with heparinized saline to maintain patency. Rats were allowed a minimum of 72 h for recovery from surgery before the experiments were conducted. GHB was administered intravenously as a 1000 mg/kg i.v. bolus or 1500 mg/kg iv bolus with or without AR-C155858 (1 mg/kg i.v. bolus) via a jugular vein cannula to the animals at 13 weeks of age (N = 5–7 per group). Rats were dosed in metabolic cages with ad libitum access to water to allow for the concurrent collection of blood and urine samples for up to 8 h. GHB was administered as a 300 mg/mL solution in sterile water, and the time of administration was considered as time 0. AR-C155858 was administered as a 1 mg/mL solution in 10% cyclodextrin in normal saline 5 min after GHB administration. Blood samples (200 μL) were taken from the jugular vein cannula at different time points: 5, 10, 20, 30, 60, 90, 120, 180, 240, 270, 300, and 330 min for 1000 mg/kg and 10, 30, 60, 90, 120, 180, 240, 270, 300, 330, 360, and 390/480 min for 1500 mg/kg bolus with or without AR-C155858. Plasma samples were separated by centrifugation and stored at −20 °C. Urine samples were collected at 120, 240, and 360 min for 1000 mg/kg and 120, 240, and 390/480 min for 1500 mg/kg bolus with or without AR-C155858 post-dose; the total urine volume was determined, and the samples were stored at −20 °C.
GHB in plasma and urine were quantified using a validated liquid chromatography/tandem mass spectrometry (LC/MS/MS) assay that was described previously. Briefly, for the preparation of plasma standards and quality controls (QCs), 5 μL of GHB-d6 and 5 μL of standard stock solution or QC stock solution were added to 45 μL of blank plasma. For each unknown plasma sample, 5 μL of GHB-d6 was added to 50 μL of plasma. Protein precipitation was then performed by the addition of 800 μL of acetonitrile with 0.1% formic acid, followed by centrifugation at 10,000 rpm for 20 min. 750 μL of the supernatant was transferred to a clean disposable glass tube and evaporated using a MultiVap Nitrogen Evaporator (Organomation, Berlin, MA, USA) under a nitrogen stream. Dried samples were reconstituted in 250 μL of 95:5 double-distilled water—acetonitrile with 0.1% acetic acid. For urine standards and QCs, 25 μL of blank urine, 5 μL of standard or QC stock solution, 5 μL of GHB-d6, and 465 μL of double-distilled water were mixed. For unknown urine samples, 25 μL of the sample was added to 5 μL of GHB-d6 and 470 μL of double-distilled water. The same LC/MS/MS method was used for GHB plasma and urine analyses. LC/MS/MS equipment consisted of an Agilent 1200 series UPLC consisting of an online degasser, binary pump, and autosampler (Agilent Technologies, Santa Clara, CA, USA) connected to a Agilent 6460 Triple Quad Mass Spectrometer. […]

[1] = 1000 mg/kg GHB iv, OVX testosterone rats
[2] = 1000 mg/kg GHB iv, intact female (estrus) rats
[3] = 1000 mg/kg GHB iv, intact male rats
[4] = 1500 mg/kg GHB + 1mg/kg AR-C 155858 iv, CST testosterone placebo rats
[5] = 1500 mg/kg GHB + 1mg/kg AR-C 155858 iv, CST testosterone rats
[6] = 1500 mg/kg GHB + 1mg/kg AR-C 155858 iv, OVX testosterone placebo rats
[7] = 1500 mg/kg GHB + 1mg/kg AR-C 155858 iv, OVX testosterone rats
[8] = 1500 mg/kg GHB + 1mg/kg AR-C 155858 iv, intact female (estrus) rats
[9] = 1500 mg/kg GHB + 1mg/kg AR-C 155858 iv, intact male rats
[10] = 1500 mg/kg GHB iv, CST testosterone placebo rats
[11] = 1500 mg/kg GHB iv, CST testosterone rats
[12] = 1500 mg/kg GHB iv, OVX testosterone placebo rats
[13] = 1500 mg/kg GHB iv, OVX testosterone rats
[14] = 1500 mg/kg GHB iv, intact female (estrus) rats
[15] = 1500 mg/kg GHB iv, intact male rats

## O=C(O)CCCO [GHB, Γ-hydroxybutyric acid]
1000 mg/kg GHB iv, CST testosterone placebo rats
  AUC - Area under the curve of plasma concentration versus time profile: 222 ± 40.7 mg·min/mL
1000 mg/kg GHB iv, CST testosterone rats
  AUC - Area under the curve of plasma concentration versus time profile: 197 ± 35.5 mg·min/mL
1000 mg/kg GHB iv, OVX testosterone placebo rats
  AUC - Area under the curve of plasma concentration versus time profile: 181 ± 10.6 mg·min/mL
[1]
  AUC - Area under the curve of plasma concentration versus time profile: 169 ± 25.9 mg·min/mL
  CL - Total clearance: 6.0 ± 0.8 mL/min/kg
[2]
  AUC - Area under the curve of plasma concentration versus time profile: 150 ± 16.6 mg·min/mL
  fe – The fraction of drug eliminated from urine: 0.39 ± 0.07
[3]
  AUC - Area under the curve of plasma concentration versus time profile: 224 ± 39.8 mg·min/mL
  fe – The fraction of drug eliminated from urine: 0.48 ± 0.06
[4]
  AUC: 195 ± 29.6 mg·min/mL
  fe (fraction of drug eliminated in urine): 0.69 ± 0.13
[5]
  AUC: 207 ± 40.4 mg·min/mL
  fe (fraction of drug eliminated in urine): 0.74 ± 0.03
[6]
  AUC: 162 ± 34.8 mg·min/mL
  fe (fraction of drug eliminated in urine): 0.73 ± 0.05
[7]
  AUC: 163 ± 24.9 mg·min/mL
  fe (fraction of drug eliminated in urine): 0.75 ± 0.09
[8]
  AUC: 184 ± 36.3 mg·min/mL
  fe (fraction of drug eliminated in urine): 0.73 ± 0.07
[9]
  AUC: 185 ± 13.2 mg·min/mL
  fe (fraction of drug eliminated in urine): 0.74 ± 0.03
[10]
  AUC: 309 ± 23.8 mg·min/mL
  fe (fraction of drug eliminated in urine): 0.60 ± 0.05
[11]
  AUC: 496 ± 97.6 mg·min/mL
  fe (fraction of drug eliminated in urine): 0.44 ± 0.09
[12]
  AUC: 271 ± 47.0 mg·min/mL
  fe (fraction of drug eliminated in urine): 0.62 ± 0.08
[13]
  AUC: 290 ± 122.7 mg·min/mL
  CL (total clearance): 6.1 ± 2.4 mL/min/kg
  fe (fraction of drug eliminated in urine): 0.41 ± 0.09
[14]
  AUC: 336 ± 78.8 mg·min/mL
  fe (fraction of drug eliminated in urine): 0.78 ± 0.12
[15]
  AUC: 343 ± 117.8 mg·min/mL
  fe (fraction of drug eliminated in urine): 0.87 ± 0.07
Both sexes, plasma, 1500 mg/kg, 1500 mg/kg GHB iv, animal groups other than testosterone-treated OVX rats, read-out: Metabolic clearance, other animal groups
  clearance: < 2.2 mL/min/kg
female, plasma and urine, 1000 mg/kg, 1000 mg/kg GHB iv, OVX testosterone placebo rats
  CL renal: 2.4 ± 0.1 mL/min/kg
female, plasma and urine, 1000 mg/kg, 1000 mg/kg GHB iv, OVX testosterone placebo rats, read-out: CLm – Metabolic clearance
  clearance: 3.1 ± 0.3 mL/min/kg
female, plasma and urine, 1000 mg/kg, 1000 mg/kg GHB iv, OVX testosterone rats
  CL renal: 2.4 ± 0.7 mL/min/kg
female, plasma and urine, 1000 mg/kg, 1000 mg/kg GHB iv, OVX testosterone rats, read-out: CLm – Metabolic clearance
  clearance: 3.6 ± 0.6 mL/min/kg
female, plasma and urine, 1000 mg/kg, 1000 mg/kg GHB iv, intact female (estrus) rats
  CL renal: 2.6 ± 0.5 mL/min/kg
